Test system: conscious male spontaneously hypertensive rats (SHR)
Assay: Systolic blood pressure by inflatable tail cuff in conscious spontaneously hypertensive rats
Type: in vivo
Description: Potentiation of the anti-hypertensive response to Compounds of formula (I) has been observed in conscious male spontaneously hypertensive rats (SHR) when the compounds were combined with the angiotensin I converting enzyme inhibitor enalapril. For the purpose of the experiment 36 rats were allotted at random to 4 groups, each of 9 rats. Systolic blood pressure (SBP) was measured non-invasively using an inflatable tail cuff technique as described in the aforementioned European Patent references. The protocol of the experiment was as follows: [table] […] The results were as shown in Table I. The protocol of the experiment for pinacidil was as follows: [table] […]

For `CN1CCCN(C2c3cc(C#N)ccc3OC(C)(C)C2O)C1=O` (stereo not drawn) [Compound 3, 6-cyano-3,4-dihydro-2,2-dimethyl-trans-4-(N-3-methyltetrahydro-2-pyrimidone)-2H-benzo[b]pyran-3-ol], the “SBP change (quantity not headed in table; as % change of Table I)” value (Compound 3 2.0 mg/kg po alone, time 0.75, time-0 value 253±6) was 0±3, the “SBP change (quantity not headed in table; as % change of Table I)” value (Compound 3 2.0 mg/kg po alone, time 1.75, time-0 value 253±6) was -20±3 and the “SBP change (quantity not headed in table; as % change of Table I)” value (Compound 3 2.0 mg/kg po alone, time 2.75, time-0 value 253±6) was -22±3. For the same molecule, the “SBP change (quantity not headed in table; as % change of Table I)” value (Compound 3 2.0 mg/kg po alone, time 4.75, time-0 value 253±6) was -21±3.
With `CC(N/C(=N\C#N)Nc1ccncc1)C(C)(C)C` (stereo not shown) [Pinacidil, Nʺ-Cyano-N-4-pyridyl-Nʹ-1,2,2-trimethylpropylguanidine] the “% change (± s.e.m.) of SBP” value (Group 3: vehicle at 0 h, pinacidil 1 mg/kg po at 0.75 h, time 0.75 h (time of pinacidil dosing), initial SBP 269±4 mmHg) was “+4±1%”, the “% change (± s.e.m.) of SBP” value (Group 3: vehicle at 0 h, pinacidil 1 mg/kg po at 0.75 h, time 1.75 h, initial SBP 269±4 mmHg, n=8) was -33±5(n=8) % and the “% change (± s.e.m.) of SBP” value (Group 3: vehicle at 0 h, pinacidil 1 mg/kg po at 0.75 h, time 2.75 h, initial SBP 269±4 mmHg) was -19±3%. The “% change (± s.e.m.) of SBP” value (Group 3: vehicle at 0 h, pinacidil 1 mg/kg po at 0.75 h, time 4.75 h, initial SBP 269±4 mmHg) was -9±3%.
For `CC(=O)NC1c2cc(C#N)ccc2OC(C)(C)C1O` (stereo not drawn) [Compound 4, trans-4-N-acetylamino-6-cyano-3,4-dihydro-2,2-dimethyl-2H-benzo[b]pyran-3-ol], the “SBP change (quantity not headed in table; as % change of Table I)” value (Compound 4 0.15 mg/kg po alone, time 0.75, time-0 value 281±5) was 0±2, the “SBP change (quantity not headed in table; as % change of Table I)” value (Compound 4 0.15 mg/kg po alone, time 1.75, time-0 value 281±5) was -26±4 and the “SBP change (quantity not headed in table; as % change of Table I)” value (Compound 4 0.15 mg/kg po alone, time 2.75, time-0 value 281±5) was -23±4. The “SBP change (quantity not headed in table; as % change of Table I)” value (Compound 4 0.15 mg/kg po alone, time 4.75, time-0 value 281±5) was -13±2.
`CC1(C)Oc2ccncc2[C@@H](N2CCCC2=O)[C@@H]1O` (relative stereo) [Compound 2, trans-3,4-dihydro-2,2-dimethyl-4-(2-oxopyrrolidin-1-yl)-2H-pyrano[3,2-c]pyridin-3-ol] was tested, and the “SBP change (quantity not headed in table; as % change of Table I)” value (Compound 2 0.6 mg/kg po alone, time 0.75, time-0 value 244±6) was 1±2, the “SBP change (quantity not headed in table; as % change of Table I)” value (Compound 2 0.6 mg/kg po alone, time 1.75, time-0 value 244±6) was -20±2 and the “SBP change (quantity not headed in table; as % change of Table I)” value (Compound 2 0.6 mg/kg po alone, time 2.75, time-0 value 244±6) was -12±3. The “SBP change (quantity not headed in table; as % change of Table I)” value (Compound 2 0.6 mg/kg po alone, time 4.75, time-0 value 244±6) was -11±2.
`CCOC(=O)[C@H](CCc1ccccc1)N[C@@H](C)C(=O)N1CCC[C@H]1C(=O)O` [Enalapril] was tested, and the “SBP change (quantity not headed in table; as % change of Table I)” value (Compound 2 experiment: Compound (A) 3 mg/kg po alone, time 0.75, time-0 value 247±3) was -9±1, the “SBP change (quantity not headed in table; as % change of Table I)” value (Compound 2 experiment: Compound (A) 3 mg/kg po alone, time 1.75, time-0 value 247±3) was -22±2 and the “SBP change (quantity not headed in table; as % change of Table I)” value (Compound 2 experiment: Compound (A) 3 mg/kg po alone, time 2.75, time-0 value 247±3) was -14±3. For the same molecule, the “SBP change (quantity not headed in table; as % change of Table I)” value (Compound 2 experiment: Compound (A) 3 mg/kg po alone, time 4.75, time-0 value 247±3) was -16±2, the “SBP change (quantity not headed in table; as % change of Table I)” value (Compound 3 experiment: Compound (A) 3 mg/kg po alone, time 0.75, time-0 value 254±4) was -8±2 and the “SBP change (quantity not headed in table; as % change of Table I)” value (Compound 3 experiment: Compound (A) 3 mg/kg po alone, time 1.75, time-0 value 254±4) was -10±3. For the same molecule, the “SBP change (quantity not headed in table; as % change of Table I)” value (Compound 3 experiment: Compound (A) 3 mg/kg po alone, time 2.75, time-0 value 254±4) was -12±4, the “SBP change (quantity not headed in table; as % change of Table I)” value (Compound 3 experiment: Compound (A) 3 mg/kg po alone, time 4.75, time-0 value 254±4) was -21±3 and the “SBP change (quantity not headed in table; as % change of Table I)” value (Compound 4 experiment: Compound (A) 3 mg/kg po alone, time 0.75, time-0 value 280±5) was -4±2. For the same molecule, the “SBP change (quantity not headed in table; as % change of Table I)” value (Compound 4 experiment: Compound (A) 3 mg/kg po alone, time 1.75, time-0 value 280±5) was -9±2, the “SBP change (quantity not headed in table; as % change of Table I)” value (Compound 4 experiment: Compound (A) 3 mg/kg po alone, time 2.75, time-0 value 280±5) was -12±3 and the “SBP change (quantity not headed in table; as % change of Table I)” value (Compound 4 experiment: Compound (A) 3 mg/kg po alone, time 4.75, time-0 value 280±5) was -14±2. For the same molecule, the “% change (± sem) of SBP” value (Group 2: enalapril 3 mg/kg po at 0 h, vehicle at 0.75 h, time 0.75 h, initial SBP 257±3 mmHg) was -8±2%, the “% change (± sem) of SBP” value (Group 2: enalapril 3 mg/kg po at 0 h, vehicle at 0.75 h, time 1.75 h, initial SBP 257±3 mmHg) was -11±4% and the “% change (± sem) of SBP” value (Group 2: enalapril 3 mg/kg po at 0 h, vehicle at 0.75 h, time 2.75 h, initial SBP 257±3 mmHg) was -15±2%. The “% change (± sem) of SBP” value (Group 2: enalapril 3 mg/kg po at 0 h, vehicle at 0.75 h, time 4.75 h, initial SBP 257±3 mmHg, n=7) was -17±2 (n=7) %, the “% change (± s.e.m.) of SBP” value (Pinacidil experiment, Group 2: enalapril 3 mg/kg po at 0 h, vehicle at 0.75 h, time 0.75 h, initial SBP 274±6 mmHg) was -4±1% and the “% change (± s.e.m.) of SBP” value (Pinacidil experiment, Group 2: enalapril 3 mg/kg po at 0 h, vehicle at 0.75 h, time 1.75 h, initial SBP 274±6 mmHg) was -14±3%. For the same molecule, the “% change (± s.e.m.) of SBP” value (Pinacidil experiment, Group 2: enalapril 3 mg/kg po at 0 h, vehicle at 0.75 h, time 2.75 h, initial SBP 274±6 mmHg) was -16±3% and the “% change (± s.e.m.) of SBP” value (Pinacidil experiment, Group 2: enalapril 3 mg/kg po at 0 h, vehicle at 0.75 h, time 4.75 h, initial SBP 274±6 mmHg, n=8) was -17±3(n=8) %.
With `CC1(C)Oc2ccc(C#N)cc2[C@@H](N2CCCC2=O)[C@@H]1O` (relative stereo) [Compound 1, 6-cyano-3,4-dihydro-2,2-dimethyl-trans-4-(2-oxo-1-pyrrolidinyl)-2H-benzo[b]pyran-3-ol] the “% change (± sem) of SBP” value (Group 3: vehicle at 0 h, Compound 1 0.3 mg/kg po at 0.75 h, time 0.75 h (time of compound dosing), initial SBP 262±3 mmHg) was -2±2%, the “% change (± sem) of SBP” value (Group 3: vehicle at 0 h, Compound 1 0.3 mg/kg po at 0.75 h, time 1.75 h, initial SBP 262±3 mmHg) was -43±2% and the “% change (± sem) of SBP” value (Group 3: vehicle at 0 h, Compound 1 0.3 mg/kg po at 0.75 h, time 2.75 h, initial SBP 262±3 mmHg) was -21±2%. The “% change (± sem) of SBP” value (Group 3: vehicle at 0 h, Compound 1 0.3 mg/kg po at 0.75 h, time 4.75 h, initial SBP 262±3 mmHg) was -15±3%.

Source: EP0271271B1, “Pharmaceutical preparations” (BEECHAM GROUP PLC, priority 1986, dated 1988)
